# Data from patent publication US4505898A, “Derivatives of acetylsalicylic acid and substituted phenylacetic acids and compositions containing them” (priority 1983, dated 1985).
# How the values were obtained:
# [1] = system: carrageenin-induced paw oedema; assay: inhibition of experimentally-induced (carrageenin) paw oedema in rats; assay type: in vivo; conditions: rats fasted 18 hours; compound in aqueous 1% tragacanth, 25 ml/kg, 45 min before subplantar 0.1 ml 1% carrageenin; dose not given
# Protocol: For this purpose, the well known test for the inhibition of experimentally-induced paw oedema in rats was used. The test was carried out as follows.
# The rats are fasted 18 hours prior to dosing, but water is made available to them. Test compounds are then administered in aqueous 1% tragacanth at a dose volume of 25 ml/kg body weight. One group of rats is given vehicle only at the same dose volume. Forty five minutes later, all rats are given a subplantar injection of 0.1 ml of a 1% solution of carrageenin in 0.9% saline in the left hind paw. The volume of this paw is measured before and after the carrageenin injection using a volume differential meter designed by Ugo Basile.
# Anti-inflammatory activity is measured as the percentage inhibition of paw oedema in the drug treated animals compared to the controls.
# [2] = background statement, no test described; cited from earlier work
SMILES,Anti-inflammatory activity (percentage inhibition of paw oedema compared to controls) [1],anti-inflammatory activity compared with Alclofenac [2]
"C=CCOc1ccc(CC(=O)NC(C)C(=O)OC)cc1Cl (racemic) [Compound 2, 4-allyloxy-3-chloro-phenylacetyl-(DL)-alanine methyl ester]",23.1%,–
CCCOc1ccc(CC(=O)O)cc1Cl [4-n-propoxy-3-chloro-phenylacetic acid],–,much reduced anti-inflammatory activity as compared with Alclofenac
"C=CCOc1ccc(CC(=O)O)cc1Cl [Compound 1, 4-allyloxy-3-chloro-phenylacetic acid, reference compound]",36.0%,–
"C=CCOc1ccc(CC(=O)NCC(=O)O)cc1Cl [Compound 3, 4-allyloxy-3-chloro-phenylacetyl-glycine]",34.6%,–
"CCCOc1ccc(CC(=O)NCC(=O)O)cc1Cl [Compound 4, 4-n-propoxy-3-chloro-phenylacetyl-glycine]",35.2%,–
